# Biological target: T1, protein kinase Cα (PKCα) (Homo sapiens, UniProt P17252)
# T1 construct: isolate and photo-release endogenous PKCα from the undiluted detergent fractionated HeLa cell extracts; endogenous in cells; host or cells: HeLa cells (ATCC)
# Test: Phorbol ester (PMA) mediated PKCα sub-cellular translocation, measured by kinase activity after isolation with photocleavable antibodies
# Assay type: cell-based
# Conditions: cultured HeLa cells stimulated with 200 nM PMA for 5 min, detergent-fractionated, relative distribution based on kinase activity, n=4
# Procedure: FIG. 20. Phorbol ester (PMA) mediated protein kinase Cα (PKCα) sub-cellular translocation as measured by functional activity following isolation with photocleavable antibodies. Cultured HeLa cells were stimulated with 200 nM PMA for 5 min and detergent fractionated into the cytosol and membrane compartments prior to isolation and purification with the photocleavable antibodies.
# Cultured HeLa cells (ATCC; Manassas, Va.) were stimulated for 5 min with 200 nM Phorbol-12-Myristate-13-Acetate (PMA; EMD Biosciences, Inc., San Diego, Calif.) and subsequently detergent fractionated into sub-cellular compartments according to reported procedures [Ramsby et al. (1994) Electrophoresis 15, 265-277; Ramsby & Makowski. (1999) Methods Mol Biol 112, 53-66; Chiang et al. (2000) J Biochem Biophys Methods 46, 53-68]. PMA is a potent activator of PKCα and is well known to cause translocation of the kinase from the cytosolic to the membrane sub-cellular compartments [Ross & Joyner. (1997) Endothelium 5, 321-332; Bazan & Rapoport. (1996) J Pharmacol Toxicol Methods 36, 87-95; Yazlovitskaya & Melnykovych. (1995) Cancer Lett 88, 179-183]. […]
smiles,measurement,setting,value
"CCCCCCCCCCCCCC(=O)O[C@@H]1[C@@H](C)[C@@]2(O)[C@@H](C=C(CO)C[C@]3(O)C(=O)C(C)=C[C@@H]23)[C@@H]2C(C)(C)[C@]12OC(C)=O [PMA, Phorbol-12-Myristate-13-Acetate]","PKCα distribution, membrane",baseline 21±2% membrane,84±3%
same,"PKCα distribution, cytosol",baseline 79±7% cytosol,16±4%

# From patent publication US8486634B2, “Amplifying bisulfite-treated template” (Ambergen, Inc., priority 2007, dated 2013)
